Laboratory results as given in article PMC3152678 (Bioorganic & medicinal chemistry, 2011).

Tests used:
[1] = target: T1, LasR (Pseudomonas aeruginosa, UniProt P25084); test: LasR reporter gene agonism assay in E. coli DH5α; format: cell-based; details: E. coli LasR reporter strain
[2] = target: T1, LasR; test: LasR reporter gene agonism assay in P. aeruginosa PA01 MW1; format: cell-based; details: P. aeruginosa LasR reporter strain
[3] = format: physicochemical; details: Luria-Bertani medium, 37 °C; pseudo first-order
[4] = tested on: immune response; details: mice; cited from earlier work
[5] = target: T2, TraR (Agrobacterium tumefaciens, UniProt P33905); format: cell-based; details: dose response
[6] = target: T2, TraR; test: TraR antagonism assay in A. tumefaciens WCF; format: cell-based; details: 10 μM, in the presence of OOHL
[7] = target: T1, LasR; test: LasR reporter gene antagonism assay in E. coli DH5α; format: cell-based; details: E. coli reporter strain
[8] = target: LuxR (Aliivibrio fischeri, UniProt P35327); test: LuxR antagonism assay in V. fischeri ESI 114; format: cell-based, Vibrio fischeri
[9] = over the course of a week; cited from earlier work

T2 sequence (P33905 whole entry): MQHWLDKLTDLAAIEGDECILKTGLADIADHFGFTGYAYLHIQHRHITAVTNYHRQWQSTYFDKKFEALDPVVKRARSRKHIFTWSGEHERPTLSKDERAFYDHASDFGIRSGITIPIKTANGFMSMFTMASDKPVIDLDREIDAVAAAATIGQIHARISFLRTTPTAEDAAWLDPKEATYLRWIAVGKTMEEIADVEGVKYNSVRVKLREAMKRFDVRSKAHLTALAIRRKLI
T1 sequence (P25084 whole entry): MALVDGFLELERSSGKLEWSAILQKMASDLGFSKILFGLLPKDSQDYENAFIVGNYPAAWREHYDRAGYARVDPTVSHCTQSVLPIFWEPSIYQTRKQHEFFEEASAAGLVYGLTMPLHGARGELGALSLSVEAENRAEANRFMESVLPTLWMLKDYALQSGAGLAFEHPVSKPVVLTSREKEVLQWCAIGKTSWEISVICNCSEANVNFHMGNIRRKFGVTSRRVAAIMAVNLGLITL
LuxR, sequence (P35327 whole entry): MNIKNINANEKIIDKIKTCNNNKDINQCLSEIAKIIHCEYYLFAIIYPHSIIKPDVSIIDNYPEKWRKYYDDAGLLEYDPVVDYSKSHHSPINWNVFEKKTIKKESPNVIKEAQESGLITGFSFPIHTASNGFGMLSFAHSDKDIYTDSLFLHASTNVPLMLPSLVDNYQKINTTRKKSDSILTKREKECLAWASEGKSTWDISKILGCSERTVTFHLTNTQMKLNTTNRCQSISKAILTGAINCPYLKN

CCCC(=O)CC(=O)N[C@H]1CCSC1=O [Compound 12]
EC50 fold higher / fold less active than OdDHL, E. coli LasR [1]: ~ 10 fold
EC50 fold higher / fold less active than OdDHL, P. aeruginosa LasR [2]: ~ 10 fold

CCCCCCCCCC(=O)CC(=O)N[C@H]1CCSC1=O [Compound 15]
slope of natural log of percent of positive control vs time [3]: −0.01025 ± 0.0004
times less of an immune response than the native OdDHL [4]: approximately 40 times

CCCCCC(=O)CC(=O)N[C@H]1CCSC1=O [Compound 18]
fold less active than OOHL (TraR agonism) [5]: 100 fold

CCCC(=O)N[C@H]1CCSC1=O [Compound 19]
TraR agonism in the antagonism assay (more than OOHL alone) [6]: over 70%

CCCCCC(=O)N[C@H]1CCSC1=O [Compound 20, N-hexanoyl thiolactone]
TraR agonism in the antagonism assay (more than OOHL alone) [6]: over 70%

CCCCCCCC(=O)N[C@H]1CCSC1=O [Compound 22, N-octanoyl L-thiolactone]
fold higher concentration than OdDHL to antagonize LasR by 50% [7]: 10 fold
fold lower concentration than OHHL to antagonize LuxR by 50% [8]: 10 fold

CCCCCCCCCCCC(=O)N[C@H]1CCSC1=O [Compound 23, N-dodecanoyl thiolactone]
EC50 fold higher / fold less active than OdDHL, E. coli LasR [1]: ~ 100 fold
EC50 fold higher / fold less active than OdDHL, P. aeruginosa LasR [2]: ~ 10 fold

COc1ccc(CC(=O)NC2CCSC2=O)cc1 (stereo not shown) [Compound 28]
TraR agonism in the antagonism assay (more than OOHL alone) [6]: 24%

COc1ccc(CC(=O)N[C@H]2CCSC2=O)cc1 [Compound 29]
agonistic activity in the TraR antagonism assay relative to OOHL [6]: 2 ×

O=C(Cc1ccc(Br)cc1)N[C@H]1CCSC1=O [Compound 31]
TraR agonism in the antagonism assay (more than OOHL alone) [6]: 60%

CCCCCCCCCC(=O)CC(=O)N[C@H]1CCOC1=O [OdDHL, N-(3-oxo)-dodecanoyl HL, reference compound]
slope of natural log of percent of positive control vs time [3]: −0.01399 ± 0.0006
racemization of the chiral center [9]: less than 5%
